This passage reports IC50 results from ChEMBL document CHEMBL3734738, “A structure-activity relationship of non-peptide macrocyclic histone deacetylase inhibitors and their anti-proliferative and anti-inflammatory activities” (Bioorg Med Chem, 2015).

For one experiment, the target named is Histone deacetylase 1 (Homo sapiens, UniProt Q13547). Put plainly: Inhibition of recombinant HDAC1 (unknown origin) expressed in Escherichia coli BL21(DE3) after 60 mins using trichostatin A by label-free mass spectrometry-based SAMDI assay.
Sequence of Histone deacetylase 1 (Q13547 whole entry): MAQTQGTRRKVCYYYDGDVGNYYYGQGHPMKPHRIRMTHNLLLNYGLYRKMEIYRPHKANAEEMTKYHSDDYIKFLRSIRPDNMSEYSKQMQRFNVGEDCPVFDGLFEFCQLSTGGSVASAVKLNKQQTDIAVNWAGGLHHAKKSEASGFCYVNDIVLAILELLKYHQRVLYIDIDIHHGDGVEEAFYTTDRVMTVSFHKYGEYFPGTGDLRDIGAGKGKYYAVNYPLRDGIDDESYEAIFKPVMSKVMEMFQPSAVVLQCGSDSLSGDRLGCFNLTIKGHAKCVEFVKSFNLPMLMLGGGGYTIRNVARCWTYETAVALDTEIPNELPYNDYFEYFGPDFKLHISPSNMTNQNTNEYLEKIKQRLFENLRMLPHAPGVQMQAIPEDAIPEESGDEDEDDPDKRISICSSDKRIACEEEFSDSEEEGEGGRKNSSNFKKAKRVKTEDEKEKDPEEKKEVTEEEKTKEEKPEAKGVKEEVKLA
Experiment [1] deals with T1, Protein deacetylase HDAC6 (Homo sapiens, UniProt Q9UBN7).
T1 sequence (Q9UBN7 whole entry): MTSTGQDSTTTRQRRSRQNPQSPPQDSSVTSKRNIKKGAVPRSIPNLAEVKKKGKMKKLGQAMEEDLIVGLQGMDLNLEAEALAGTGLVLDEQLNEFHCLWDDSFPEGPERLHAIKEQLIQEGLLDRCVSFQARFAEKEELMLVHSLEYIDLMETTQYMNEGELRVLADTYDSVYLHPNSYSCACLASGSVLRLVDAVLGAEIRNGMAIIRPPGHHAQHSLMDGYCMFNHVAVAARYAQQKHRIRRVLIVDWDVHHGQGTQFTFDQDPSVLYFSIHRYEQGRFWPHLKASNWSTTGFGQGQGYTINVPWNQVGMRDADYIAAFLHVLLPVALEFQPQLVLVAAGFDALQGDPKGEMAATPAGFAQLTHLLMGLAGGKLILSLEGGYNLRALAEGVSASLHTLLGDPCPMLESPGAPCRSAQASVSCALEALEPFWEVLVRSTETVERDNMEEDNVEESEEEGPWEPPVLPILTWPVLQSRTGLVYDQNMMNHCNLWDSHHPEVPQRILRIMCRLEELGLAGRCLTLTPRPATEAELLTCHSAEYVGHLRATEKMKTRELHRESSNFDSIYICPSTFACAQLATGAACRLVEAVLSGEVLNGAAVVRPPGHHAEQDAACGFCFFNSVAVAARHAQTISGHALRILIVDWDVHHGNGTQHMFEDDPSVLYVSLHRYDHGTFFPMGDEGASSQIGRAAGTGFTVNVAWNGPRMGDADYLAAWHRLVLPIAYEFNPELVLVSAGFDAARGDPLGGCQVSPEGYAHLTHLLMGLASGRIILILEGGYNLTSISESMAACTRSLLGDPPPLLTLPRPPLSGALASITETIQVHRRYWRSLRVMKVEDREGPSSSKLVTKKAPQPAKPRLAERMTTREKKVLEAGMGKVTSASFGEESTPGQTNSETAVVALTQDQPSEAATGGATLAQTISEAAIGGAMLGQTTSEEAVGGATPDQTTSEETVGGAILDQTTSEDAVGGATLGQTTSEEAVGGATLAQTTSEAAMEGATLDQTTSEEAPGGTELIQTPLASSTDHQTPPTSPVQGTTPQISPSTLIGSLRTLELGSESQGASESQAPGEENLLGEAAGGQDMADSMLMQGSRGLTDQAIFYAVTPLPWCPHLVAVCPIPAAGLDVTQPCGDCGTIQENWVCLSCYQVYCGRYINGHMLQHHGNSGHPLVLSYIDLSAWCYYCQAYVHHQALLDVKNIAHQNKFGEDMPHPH
Put plainly: Inhibition of recombinant HDAC6 (unknown origin) expressed in Escherichia coli BL21(DE3) after 60 mins using trichostatin A by label-free mass spectrometry-based SAMDI assay.

The next experiment concerns the target T2, Histone deacetylase 8 (Homo sapiens, UniProt Q9BY41).
T2 sequence (Q9BY41 whole entry): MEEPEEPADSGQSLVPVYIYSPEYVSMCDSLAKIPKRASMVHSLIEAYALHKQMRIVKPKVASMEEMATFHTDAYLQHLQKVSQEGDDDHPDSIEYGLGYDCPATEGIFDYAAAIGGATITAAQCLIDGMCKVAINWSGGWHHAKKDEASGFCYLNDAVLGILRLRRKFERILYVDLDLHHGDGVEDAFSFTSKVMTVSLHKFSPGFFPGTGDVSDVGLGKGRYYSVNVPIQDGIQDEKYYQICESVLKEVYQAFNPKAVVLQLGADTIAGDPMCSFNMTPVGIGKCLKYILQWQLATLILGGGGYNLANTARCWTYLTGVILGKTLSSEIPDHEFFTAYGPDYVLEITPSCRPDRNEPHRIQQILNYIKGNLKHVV
Put plainly: Inhibition of recombinant HDAC8 (unknown origin) expressed in Escherichia coli BL21(DE3) after 60 mins using trichostatin A by label-free mass spectrometry-based SAMDI assay.

pIC50: −log10 of the molar value.

For the compound `CC[C@H]1OC(=O)[C@H](C)C(=O)[C@H](C)[C@@H](O[C@@H]2O[C@H](C)C[C@H](N(C)Cc3ccc(-c4cn(CCCC(=O)NO)nn4)cc3)[C@H]2O)[C@@](C)(OC)C[C@@H](C)C2=NCCN3C(=O)O[C@@]1(C)[C@H]3[C@H]2C`, the pIC50 – broadly, −log10 of the IC50, conventionally taken in molar units – on Histone deacetylase 1 was less than 5.00; in experiment [1], 6.71; on Histone deacetylase 8, 5.65.
The like results for `CC[C@H]1OC(=O)[C@H](C)[C@@H](O[C@@H]2C[C@](C)(OC)[C@H](O)[C@@H](C)O2)[C@H](C)[C@@H](O[C@@H]2O[C@H](C)C[C@H](N(C)C)[C@H]2O)[C@@](C)(O)C[C@@H](C)CN(Cc2ccc(-c3cn(CCCC(=O)NO)nn3)cc2)[C@@H](C)[C@@H](O)[C@]1(C)O` were, in that order, less than 5.00, 6.21 and 5.56.
For `CC[C@@H]1OC(=O)[C@@H](C)[C@H](O[C@H]2C[C@@](C)(OC)[C@@H](O)[C@H](C)O2)[C@H](C)[C@H](O[C@@H]2O[C@H](C)C[C@H](N(C)Cc3ccc(-c4cn(CC(=O)NO)nn4)cc3)[C@H]2O)[C@@](C)(OC)C[C@H](C)C(=O)[C@@H](C)[C@@H](O)[C@@]1(C)O`, the pIC50 (at Histone deacetylase 1; in experiment [1]; at Histone deacetylase 8) was less than 5.00 each time.
Consider `CC[C@@H]1OC(=O)[C@H](C)[C@@H](O[C@@H]2C[C@](C)(OC)[C@@](O)(CN(C)Cc3ccc(-c4cn(CCCC(=O)NO)nn4)cc3)[C@@H](C)O2)[C@@H](C)[C@@H](O[C@@H]2O[C@H](C)C[C@H](N(C)C)[C@H]2O)[C@](C)(O)C[C@@H](C)CN(C)[C@H](C)[C@@H](O)[C@]1(C)O`, for which the pIC50 on Histone deacetylase 1 was less than 5.00; in experiment [1] it was 6.74; on Histone deacetylase 8 it was 5.93.
On to `CC[C@@H]1OC(=O)[C@H](C)[C@@H](O[C@@H]2C[C@](C)(OC)[C@H](O)[C@@H](C)O2)[C@@H](C)[C@@H](O[C@@H]2O[C@H](C)C[C@H](N(C)Cc3ccccc3-c3cn(CCCCCC(=O)NO)nn3)[C@H]2O)[C@](C)(O)C[C@@H](C)CN(C)[C@H](C)[C@@H](O)[C@]1(C)O`, for which the results for the pIC50 (at Histone deacetylase 1; in experiment [1]; at Histone deacetylase 8) were 6.21, 6.75 and 5.37, respectively.
For `CC[C@H]1OC(=O)[C@H](C)C(=O)[C@H](C)[C@@H](O[C@@H]2O[C@H](C)C[C@H](N(C)Cc3ccc(-c4cn(CC(=O)NO)nn4)cc3)[C@H]2O)[C@@](C)(OC)C[C@@H](C)C2=NCCN3C(=O)O[C@@]1(C)[C@H]3[C@H]2C`, the results for the pIC50 (at Histone deacetylase 1; in experiment [1]; on Histone deacetylase 8) were less than 5.00, less than 5.00 and 5.55, respectively.
On to `CC[C@H]1OC(=O)[C@@H](C)[C@H](O[C@H]2C[C@@](C)(OC)[C@@H](O)[C@H](C)O2)[C@H](C)[C@H](O[C@H]2O[C@@H](C)C[C@@H](N(C)Cc3ccc(-c4cn(CCC(=O)NO)nn4)cc3)[C@@H]2O)[C@@](C)(O)C[C@H](C)CN(C)[C@@H](C)[C@H](O)[C@@]1(C)O`, for which the pIC50 on Histone deacetylase 1 was less than 5.00; in experiment [1] it was 5.66; at Histone deacetylase 8, less than 5.00.
For the compound `CC[C@@H]1OC(=O)[C@@H](C)[C@H](O[C@@H]2C[C@](C)(OC)[C@@](O)(CN(C)C)[C@@H](C)O2)[C@H](C)[C@H](O[C@@H]2O[C@H](C)C[C@H](N(C)Cc3ccc(-c4cn(CCCCCC(=O)NO)nn4)cc3)[C@H]2O)[C@@](C)(OC)C[C@H](C)C(=O)[C@@H](C)[C@@H](O)[C@@]1(C)O`, the pIC50 at Histone deacetylase 1 was 6.70; in experiment [1], 7.48; on Histone deacetylase 8, 5.49.
The like results for `CC[C@H]1OC(=O)[C@H](C)C(=O)[C@H](C)[C@@H](O[C@@H]2O[C@H](C)C[C@H](N(C)Cc3ccccc3-c3cn(CCCCCC(=O)NO)nn3)[C@H]2O)[C@@](C)(OC)C[C@@H](C)C2=NCCN3C(=O)O[C@@]1(C)[C@H]3[C@H]2C` were, in that order, less than 5.00, 6.61 and 5.92.
`CC[C@H]1OC(=O)[C@H](C)[C@@H](O[C@@H]2C[C@](C)(OC)[C@H](O)[C@@H](C)O2)[C@H](C)[C@@H](O[C@@H]2O[C@H](C)C[C@H](N(C)C)[C@H]2O)[C@@](C)(O)C[C@@H](C)CN(Cc2ccc(-c3cn(CCCCCC(=O)NO)nn3)cc2)[C@@H](C)[C@@H](O)[C@]1(C)O`: the pIC50 is 6.84 at Histone deacetylase 1, 7.99 in experiment [1] and 5.63 on Histone deacetylase 8.
For `CC[C@@H]1OC(=O)[C@H](C)[C@@H](O[C@@H]2C[C@](C)(OC)[C@H](O)[C@@H](C)O2)[C@@H](C)[C@@H](O[C@@H]2O[C@H](C)C[C@H](N(C)Cc3ccc(-c4cn(CCCCC(=O)NO)nn4)cc3)[C@H]2O)[C@](C)(O)C[C@@H](C)CN(C)[C@H](C)[C@@H](O)[C@]1(C)O`, in that order: 5.78, 6.84 and 5.27.
On to `CC[C@H]1OC(=O)[C@H](C)C(=O)[C@H](C)[C@@H](O[C@@H]2O[C@H](C)C[C@H](N(C)Cc3ccc(-c4cn(CCCCC(=O)NO)nn4)cc3)[C@H]2O)[C@@](C)(OC)C[C@@H](C)C2=NCCN3C(=O)O[C@@]1(C)[C@H]3[C@H]2C`, for which the results for the pIC50 (on Histone deacetylase 1; in experiment [1]; at Histone deacetylase 8) were 6.57, 7.11 and 5.49, respectively.
For the compound `CC[C@H]1OC(=O)[C@@H](C)[C@H](O[C@@H]2C[C@](C)(OC)[C@@](O)(CN(C)Cc3ccc(-c4cn(CC(=O)NO)nn4)cc3)[C@@H](C)O2)[C@H](C)[C@H](O[C@H]2O[C@@H](C)C[C@@H](N(C)C)[C@@H]2O)[C@@](C)(O)C[C@H](C)CN(C)[C@@H](C)[C@H](O)[C@@]1(C)O`, the pIC50 is less than 5.00 at Histone deacetylase 1, less than 5.00 in experiment [1] and 5.35 at Histone deacetylase 8.
`CC[C@@H]1OC(=O)[C@H](C)[C@@H](O[C@H]2C[C@@](C)(OC)[C@](O)(CN(C)Cc3ccc(-c4cn(CCC(=O)NO)nn4)cc3)[C@H](C)O2)[C@@H](C)[C@@H](O[C@@H]2O[C@H](C)C[C@H](N(C)C)[C@H]2O)[C@](C)(O)C[C@@H](C)CN(C)[C@H](C)[C@@H](O)[C@]1(C)O`: the pIC50 was less than 5.00 at Histone deacetylase 1, 5.69 in experiment [1] and 5.65 on Histone deacetylase 8.
The like results for `CC[C@H]1OC(=O)[C@@H](C)[C@H](O[C@H]2C[C@@](C)(OC)[C@@H](O)[C@H](C)O2)[C@H](C)[C@H](O[C@H]2O[C@@H](C)C[C@@H](N(C)Cc3ccc(-c4cn(CC(=O)NO)nn4)cc3)[C@@H]2O)[C@@](C)(O)C[C@H](C)CN(C)[C@@H](C)[C@H](O)[C@@]1(C)O` were, in that order, less than 5.00, 5.25 and less than 5.00.
`CC[C@@H]1OC(=O)[C@@H](C)[C@H](O[C@H]2C[C@@](C)(OC)[C@@H](O)[C@H](C)O2)[C@H](C)[C@H](O[C@@H]2O[C@H](C)C[C@H](N(C)Cc3ccc(-c4cn(CCCCC(=O)NO)nn4)cc3)[C@H]2O)[C@@](C)(OC)C[C@H](C)C(=O)[C@@H](C)[C@@H](O)[C@@]1(C)O`: the pIC50 on Histone deacetylase 1 was 5.31; in experiment [1], 6.92; at Histone deacetylase 8, 6.06.
Take `CC[C@@H]1OC(=O)[C@@H](C)[C@H](O[C@H]2C[C@@](C)(OC)[C@@H](O)[C@H](C)O2)[C@H](C)[C@H](O[C@@H]2O[C@H](C)C[C@H](N(C)Cc3ccc(-c4cn(CCC(=O)NO)nn4)cc3)[C@H]2O)[C@@](C)(OC)C[C@H](C)C(=O)[C@@H](C)[C@@H](O)[C@@]1(C)O`: the pIC50 was less than 5.00 on Histone deacetylase 1, 6.04 in experiment [1] and 5.61 at Histone deacetylase 8.
The like results for `CC[C@H]1OC(=O)[C@H](C)C(=O)[C@H](C)[C@@H](O[C@@H]2O[C@H](C)C[C@H](N(C)Cc3ccc(-c4cn(CCC(=O)NO)nn4)cc3)[C@H]2O)[C@@](C)(OC)C[C@@H](C)C2=NCCN3C(=O)O[C@@]1(C)[C@H]3[C@H]2C` were, in that order, less than 5.00, 5.76 and less than 5.00.
